From BindingDB's records for doi:10.1021/jm0205696 (Abbott Laboratories, 2003)

Molecular target: T1, Tyrosine-protein phosphatase non-receptor type 2 (Homo sapiens, UniProt P17706)
T1 sequence (P17706 whole entry): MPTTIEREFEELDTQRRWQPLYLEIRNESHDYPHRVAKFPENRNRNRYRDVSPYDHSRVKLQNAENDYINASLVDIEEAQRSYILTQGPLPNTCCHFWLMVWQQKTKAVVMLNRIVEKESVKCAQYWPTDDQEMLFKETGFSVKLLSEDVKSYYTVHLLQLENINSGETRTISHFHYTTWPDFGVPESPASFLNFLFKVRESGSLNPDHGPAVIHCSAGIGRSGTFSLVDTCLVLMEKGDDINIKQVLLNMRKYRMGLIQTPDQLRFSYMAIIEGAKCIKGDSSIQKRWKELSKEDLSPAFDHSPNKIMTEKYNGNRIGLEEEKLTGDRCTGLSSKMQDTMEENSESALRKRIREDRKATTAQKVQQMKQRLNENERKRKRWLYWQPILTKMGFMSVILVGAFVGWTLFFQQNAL
Assay: PTP1B and TCPTP Inhibition Assay
Method: For each concentration of test compound or DMSO control, the initial rates were used to fit the rectangular hyperbola of Michaelis-Menten by nonlinear regression analysis. The ratio of the apparent Km/Vmax vs inhibitor concentration was plotted, and the Ki was calculated by linear regression to be the negative X-intercept.

CCCCCNC(=O)[C@H](Cc1ccc(N(C(=O)C(=O)O)c2ccccc2C(=O)O)c(/C=C/C(N)=O)c1)NS(C)(=O)=O [2-{[2-(2-Carbamoylvinyl)-4-(2-(S)-methanesulfonylamino 2-pentylcarbamoylethyl)phenyl]oxalylamino}-benzoic Acid]
Ki: 160 nM
